According to PubChem BioAssay (NCI):
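Exposure lasted 48 hours, with cells grown in 96-well plates and compounds tested at five concentrations. GI50: concentration for 50% inhibition of growth. TGI denotes the concentration required for complete inhibition of growth.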

Tests used:
Experiment in all cases: growth of human tumour cells (NCI), 48 h
PC-3 prostate = system: PC-3 prostate
CAKI-1 renal = system: CAKI-1 renal
KM12 colon = system: KM12 colon
NCI-H226 lung = system: NCI-H226 lung
UACC-257 melanoma = system: UACC-257 melanoma
CCRF-CEM leukemia = system: CCRF-CEM leukemia
COLO 205 colon = system: COLO 205 colon
EKVX NSCLC = system: EKVX NSCLC
OVCAR-4 ovarian = system: OVCAR-4 ovarian

SMILES | TGI (PC-3 prostate) | TGI (CAKI-1 renal) | TGI (KM12 colon) | TGI (NCI-H226 lung) | TGI (UACC-257 melanoma) | TGI (CCRF-CEM leukemia) | TGI (COLO 205 colon) | TGI (EKVX NSCLC) | TGI (OVCAR-4 ovarian) | GI50 (KM12 colon) | GI50 (NCI-H226 lung) | GI50 (OVCAR-4 ovarian) | GI50 (UACC-257 melanoma) | GI50 (CCRF-CEM leukemia) | GI50 (EKVX NSCLC) | GI50 (PC-3 prostate)
COc1ccc(OC2OC(CO)C(OCc3ccccc3)C(OCc3ccccc3)C2OCc2ccccc2)cc1 (stereo not drawn) | > 100 µM | > 100 µM | > 100 µM | > 100 µM | > 100 µM | > 100 µM | > 100 µM | > 100 µM |  |  |  |  |  |  |  | 
O=C1C=CC=C/C1=C1\N=C(c2ccccc2OCC(=O)c2ccccc2)SS1 |  | > 100 µM | > 100 µM | > 100 µM | > 100 µM | > 100 µM |  | > 100 µM | > 100 µM |  |  |  |  |  |  | 
CC1=NN(c2nc(N)nc(-c3sccc3N)n2)C(C)(C)C1 |  | > 100 µM | > 100 µM | > 100 µM | > 100 µM | > 100 µM | > 100 µM | > 100 µM | > 100 µM |  |  |  |  |  |  | 
Cc1cc(C)c2c(=O)cc(-c3cccc(F)c3)[nH]c2n1 | > 49.1 µM | > 66.3 µM | 13.3 µM | 7.4 µM | > 100 µM |  | 0.354 µM | > 100 µM | > 100 µM |  |  |  |  |  |  | 
S=C(N/N=C\C(=N/NC(=S)N1CCCCC1)c1ccccc1)N1CCCCC1 | 4.06 µM | 4.66 µM | 3.98 µM | 3.38 µM | 5.01 µM |  | 3.86 µM | 3.31 µM | 3.43 µM |  |  |  |  |  |  | 
O=P(O)(O)c1ccccc1Oc1ccccc1 | > 100 µM | > 100 µM | > 100 µM | > 100 µM | > 100 µM | > 100 µM | > 100 µM | > 100 µM |  |  |  |  |  |  |  | 
Cc1cc(S(=O)(=O)Nc2n[nH]c(-c3ccccn3)n2)c(S)cc1Cl | > 100 µM | 15.7 µM | > 100 µM | 30.5 µM | > 100 µM |  | 90.6 µM | 92 µM | 65.5 µM |  |  |  |  |  |  | 
C=C1N(C=O)C(C)(C)N(O)C1(C)C | > 100 µM | > 100 µM | > 100 µM | > 100 µM | > 100 µM |  | > 100 µM | > 100 µM | > 100 µM |  |  |  |  |  |  | 
COC(=O)C1CCc2sc3ncnc(Nc4cn[nH]c4C(=O)Nc4ccc(CN5CCN(C)CC5)cc4)c3c21 (stereo not drawn) |  |  | 2.63 µM | > 100 µM | 2.8 µM | 2.98 µM |  | 14 µM | > 100 µM | 207 nM | 0.588 µM | 0.906 µM | 1190 nM | 290 nM | 0.838 µM | 
N#C/C(C(=O)Nc1ccc(Cl)cc1)=C(/N)N1CCCC1 | > 100 µM | > 100 µM | > 100 µM | > 100 µM | > 100 µM | > 100 µM | > 100 µM | > 100 µM |  |  |  |  |  |  |  | 
COc1cc(C(=O)Oc2ccc3c(c2)OCO3)cc(OC)c1OC | > 100 µM | > 100 µM | > 100 µM | > 100 µM | > 100 µM |  | > 100 µM |  | > 100 µM |  |  |  |  |  |  | 
COc1ccc(-c2c3c(n(C4OC(CO)C(O)C(O)C4O)c(=S)c2C#N)CCC3)cc1 (stereo not drawn) | > 100 µM | > 100 µM | > 100 µM |  | > 100 µM | > 100 µM | > 100 µM |  | > 100 µM |  |  |  |  |  |  | 
CC(=O)OCC1OC(n2c(-c3ccccc3)c(N=Nc3ccccc3)c(C)c(C#N)c2=S)C(OC(C)=O)C(OC(C)=O)C1OC(C)=O (stereo not drawn) | > 100 µM | > 100 µM | > 100 µM |  | > 100 µM | > 100 µM | > 100 µM |  | > 100 µM |  |  |  |  |  |  | 
COC(=O)C1C(C(=O)OC)C2(OC(c3ccc(Cl)cc3)=CC2=O)C12OC(c1ccc(Cl)cc1)=CC2=O (stereo not drawn) | 55.8 µM | 59 µM |  | > 100 µM | 48.8 µM | 8.23 µM | 34.6 µM | 54.9 µM | 64.1 µM |  |  |  |  |  |  | 
OCCOCn1nncc1Cn1ncc2c(SCc3ccccc3)ncnc21 | > 100 µM | > 100 µM | > 100 µM | > 100 µM | > 100 µM |  | > 100 µM | > 100 µM | > 100 µM |  |  |  |  |  |  | 
CCc1c(CNc2ccc(C(=O)NC(CC(=O)O)C(=O)O)cc2)ccc2nc(N)nc(N)c12 (stereo not drawn) | > 1000 µM | > 1000 µM | > 1000 µM | > 1000 µM |  | > 1000 µM |  | > 1000 µM | > 1000 µM |  | > 1000 µM | 869 µM |  |  | 558 µM | < 10 nM
Nc1nc(Cl)cc(NCC2(O)CC2)n1 | > 100 µM | > 100 µM | > 100 µM | > 100 µM | > 100 µM | > 100 µM |  | > 100 µM | > 100 µM |  |  |  |  |  |  | 
COc1ccc(/C=c2\s/c(=C3/SC(=S)N(c4ccccc4)C3=O)n(-c3ccccc3)c2=O)cc1 | > 100 µM | > 100 µM | > 100 µM |  |  | 77.4 µM | > 100 µM | > 100 µM | > 100 µM |  |  |  |  |  |  | 
COc1cc(CC(C)NC(C)=O)cc(OC)c1 (stereo not drawn) | > 100 µM | > 100 µM | > 100 µM | > 100 µM | > 100 µM | > 100 µM | > 100 µM |  |  |  |  |  |  |  |  | 
